From ChEMBL document CHEMBL1140612, “4-Methyl-1,2,3-selenadiazole-5-carboxylic acid amides: antitumor action and cytotoxic effect correlation” (Eur J Med Chem, 2007)
Values after ≈ are worked out from the molar mass of the structure shown. Active and inactive are the calls of the source. The calls are words filed in the database; no cut-off is given here.

Experiments:
[1] = tested on: MG-22A; test: Effect on nitric oxide production in mouse MG22A cells at 100 ug/ml by crystal violet coloration assay; type: functional
[2] = tested on: HT-1080; test: Induction of apoptosis in human HT1080 cells after 72 hrs; type: functional, cell-based
[3] = tested on: MG-22A; test: Induction of apoptosis in mouse MG22A cells after 72 hrs; type: functional, cell-based
[4] = Cytotoxicity against mouse NIH3T3 cells after 72 hrs; type: cell-based; conditions: read-out: TD50
[5] = tested on: HT-1080; test: Cytotoxicity against human HT1080 cells after 72 hrs; type: functional; conditions: for CC50: HT-1080, 72 h, read-out: TD50 (the source's name)
[6] = tested on: CCRF S-180; test: Antitumor activity against S180 cells inoculated in ICR mouse assessed as inhibition of tumor growth at 2 mg/kg, ip after 2 days; type: functional; conditions: CCRF S-180, ip, 48 h, route intraperitoneal
[7] = tested on: HT-1080; test: Effect on nitric oxide production in human HT1080 cells at 100 ug/ml by crystal violet coloration assay; type: functional
[8] = tested on: Mus musculus; test: Toxicity in ICR mouse assessed as body weight at 2 mg/kg, ip after 2 days; type: organism-based; set-up: dose 2 mg/kg, route intraperitoneal; conditions: in vivo, 48 h
[9] = tested on: MG-22A; test: Cytotoxicity against mouse MG22A cells after 72 hrs; type: functional; conditions: read-out: TD50 (the source's name)
[10] = tested on: Mus musculus; test: Toxicity in ICR mouse assessed as body weight at 10 mg/kg, ip after 9 days; type: organism-based; set-up: dose 10 mg/kg, route intraperitoneal; conditions: in vivo, 216 h
[11] = tested on: CCRF S-180; test: Antitumor activity against S180 cells inoculated in ICR mouse assessed as inhibition of tumor growth at 10 mg/kg, ip after 9 days; type: functional; conditions: for inhibition in vivo at 10 mg/kg: CCRF S-180, ip, 216 h, route intraperitoneal
[12] = tested on: HT-1080; test: Effect on cell morphology in human HT1080 cells after 72 hrs; type: functional, cell-based
[13] = tested on: CCRF S-180; test: Antitumor activity against S180 cells inoculated in ICR mouse assessed as inhibition of tumor growth at 10 mg/kg, ip after 8 days; type: functional; conditions: CCRF S-180, ip, 192 h, route intraperitoneal
[14] = tested on: Mus musculus; test: Toxicity in ICR mouse assessed as body weight at 10 mg/kg, ip after 8 days; type: organism-based; set-up: dose 10 mg/kg, route intraperitoneal; conditions: in vivo, 192 h

Row | SMILES | Activity [1] [%] | Activity [2] | Activity [3] | CC50 at 72 h [4] [µg/mL] | Activity [5] | inhibition in vivo at 2 mg/kg [6] [%] | Activity [7] [%] | Activity [8] [%] | CC50 [9] [µg/mL] | Activity [10] [%] | CC50 [5] [µg/mL] | inhibition in vivo at 10 mg/kg [11] [%] | Activity [12] | Activity [11] | inhibition in vivo at 10 mg/kg [13] [%] | Activity [14] [%]
1 | Cc1nn[se]c1C(=O)N(C)C | 63 | Active | Active | 351 (≈ 1610 µM) | Not toxic | 58 | 10 | 17 | 35 (≈ 160 µM) |  |  |  |  |  |  | 
2 | Cc1nn[se]c1C(=O)N[C@H](C)c1ccccc1 | 400 |  |  | 195 (≈ 663 µM) |  |  | 17 |  | 29 (≈ 98.6 µM) | 3 | 100 (≈ 340 µM) | 20 | inactive |  |  | 
3 | Cc1nn[se]c1C(=O)N1CCCC1 | 350 |  | Active | 214 (≈ 876 µM) |  |  | 350 |  | 33 (≈ 135 µM) | 23 | 19 (≈ 77.8 µM) | 85 |  |  |  | 
4 | Cc1nn[se]c1C(=O)N1CCOCC1 | 250 |  |  | 280 (≈ 1080 µM) | Not toxic |  | 11 |  | 34 (≈ 131 µM) | 8 |  |  |  | Non-toxic |  | 
5 | Cc1nn[se]c1C(=O)N(C(C)C)C(C)C | 200 |  |  | 718 (≈ 2620 µM) | Not toxic |  | 29 |  | 31 (≈ 113 µM) | 0 |  | -32 |  |  |  | 
6 | Cc1nn[se]c1C(=O)N[C@@H](C)c1ccccc1 | 200 |  |  | 407 (≈ 1380 µM) |  |  | 300 |  | 32 (≈ 109 µM) |  | 31 (≈ 105 µM) |  | Active |  | -23 | 0
7 | Cc1nn[se]c1C(=O)N1CCCCC1 | 400 |  |  | 123 (≈ 476 µM) |  |  | 100 |  | 27 (≈ 105 µM) | 8 | 31 (≈ 120 µM) | 71 |  |  |  | 
